Laboratory results as given in ChEMBL document CHEMBL4433260, “Oxadiazole scaffolds in anti-tuberculosis drug discovery” (Bioorg Med Chem Lett, 2019).
Converted amounts (≈) assume the structure as drawn.

Assays:
[1] = test system: Mycolicibacterium smegmatis; experiment: Antimycobacterial activity against Mycobacterium smegmatis str. MC2 155; format: functional
[2] = test system: Mycobacterium tuberculosis; experiment: Antimycobacterial activity against non-replicating Mycobacterium tuberculosis H37Rv at 1.6 ug/ml relative to control; format: functional
[3] = test system: Mycobacterium tuberculosis; experiment: Antimycobacterial activity against Mycobacterium tuberculosis Erdman; format: functional
[4] = test system: Mycobacterium tuberculosis; experiment: Antimycobacterial activity against replicating Mycobacterium tuberculosis H37Rv at 8 ug/ml relative to control; format: functional
[5] = Inhibition of Mycobacterium tuberculosis H37Rv shikimate kinase using shikimic acid as substrate preincubated for 15 mins followed by substrate addition in presence of ATP by LC/MS analysis
[6] = test system: Mycobacterium tuberculosis; experiment: Antimycobacterial activity against Mycobacterium tuberculosis H37Rv; format: functional
[7] = test system: Mycobacterium tuberculosis; experiment: Antimycobacterial activity against Mycobacterium tuberculosis H37Rv incubated for 5 days by alamar blue assay; format: functional; conditions: 120 h
[8] = test system: Mycobacterium tuberculosis; experiment: Antimycobacterial activity against Mycobacterium tuberculosis H37Rv measured after 28 days by Lowensteine-Jensen method; format: functional; conditions: 672 h
[9] = test system: Mycobacterium tuberculosis; experiment: Antimycobacterial activity against Mycobacterium tuberculosis H37Rv at 250 ug/ml measured after 4 weeks by Lowensteine-Jensen method relative to control; format: functional; conditions: 672 h
[10] = test system: Mycobacterium tuberculosis; experiment: Antimycobacterial activity against Mycobacterium tuberculosis H37Rv at 100 ug/ml by alamar blue assay relative to control; format: functional
[11] = test system: Mycobacterium tuberculosis; experiment: Antitubercular activity against dormant stage of Mycobacterium tuberculosis H37Ra; format: functional
[12] = test system: Mycobacterium tuberculosis; experiment: Antimycobacterial activity against Mycobacterium tuberculosis H37Rv by alamar blue assay; format: functional

## O=C(Nc1nnc(-c2ccc(F)cc2)o1)c1ccc(Cl)cc1
[1]
  MIC: 0.4 µg/mL (≈ 1.26 µM)
[2]
  inhibition at 1.6 µg/mL: > 90%
[3]
  MIC: 1.6 µg/mL (≈ 5.04 µM)
[4]
  inhibition at 8 µg/mL: > 90%

## O=C(Nc1nnc(-c2ccccc2Cl)o1)c1cccc(Oc2ccccc2)c1
[5]
  IC50: 3.43 µM
[6]
  MIC: < 1 µg/mL

## Cn1c(-c2cccc(Cl)c2Cl)nc2cc(-c3nc(-c4ccc(Cl)cc4)no3)ccc21
[7]
  MIC: 1.6 µg/mL (≈ 3.51 µM)

## Cn1c(-c2cccc(Cl)c2F)nc2cc(-c3nc(Cc4cccc(Cl)c4)no3)ccc21
[7]
  MIC: 1.6 µg/mL (≈ 3.53 µM)

## Cn1c(-c2cccc(Cl)c2Cl)nc2cc(-c3nc(-c4ccccc4Cl)no3)ccc21
[7]
  MIC: 1.6 µg/mL (≈ 3.51 µM)

## Cn1c(-c2cccc(Cl)c2F)nc2cc(-c3nc(-c4ccc(Cl)cc4)no3)ccc21
[7]
  MIC: 1.6 µg/mL (≈ 3.64 µM)

## Cc1ccc2nc(Cl)c(CN(c3ccccc3)c3nnc(-c4cccnc4)o3)cc2c1
[8]
  MIC: 60 to 200 µM (≈ 25.7 to 85.6 µg/mL)

## Clc1ccc2nc(Cl)c(CN(c3ccccc3)c3nnc(-c4cccnc4)o3)cc2c1
[8]
  MIC: 60 to 200 µM (≈ 26.9 to 89.7 µg/mL)

## Cc1nn(-c2ccccc2)c(Oc2cccc(C(F)(F)F)c2)c1-c1nnc(-c2ccc(Br)cc2)o1
[9]
  inhibition at 250 µg/mL: > 90%

## COc1ccc(-c2nnc(-c3cc4cc(C)ccc4n4nnnc34)o2)cc1
[10]
  inhibition at 100 µg/mL: > 90%

## Cc1ccc(-c2nnc(-c3c(C)nn(-c4ccccc4)c3Oc3cccc(F)c3)o2)cc1
[9]
  inhibition at 250 µg/mL: > 90%

## Cc1ccc(-c2nnc(-c3c(C)nn(-c4ccccc4)c3Oc3ccc(F)cc3)o2)cc1
[9]
  inhibition at 250 µg/mL: > 90%

## Cc1nn(-c2ccccc2)c(Oc2ccc(F)cc2)c1-c1nnc(-c2ccc(Br)cc2)o1
[9]
  inhibition at 250 µg/mL: > 90%

## CO[C@H]1O[C@H](Cc2nnc(C)o2)[C@@H](OCc2ccccc2)[C@H](OCc2ccccc2)[C@H]1OCc1ccccc1
[6]
  MIC: 60 µM

## Cc1ccc2c(c1)cc(-c1nnc(-c3ccncc3)o1)c1nnnn12
[10]
  inhibition at 100 µg/mL: > 90%

## CC1(C)Cc2c(C#CCO)c(NC(=O)C(C)(C)C)cc(-c3nnc(-c4ccc(C(F)(F)F)cc4)o3)c2O1
[11]
  IC90: 5.7 µM

## O=C(/C=C/c1ccccc1)Nc1nnc(C2CCCc3ccccc32)o1 (stereo not given)
[5]
  IC50: 3.79 µM
[6]
  MIC: < 1 µg/mL

## Clc1ccc2nc(Cl)c(CN(c3ccccc3)c3nnc(-c4ccncc4)o3)cc2c1
[8]
  MIC: 60 to 200 µM (≈ 26.9 to 89.7 µg/mL)

## Clc1nc2ccccc2cc1CN(c1ccccc1)c1nnc(-c2ccncc2)o1
[8]
  MIC: 60 to 200 µM (≈ 24.8 to 82.8 µg/mL)

## Clc1ccc(-c2nnc(/N=C/c3ccco3)o2)cc1
[12]
  MIC: 3.12 µg/mL (≈ 11.4 µM)
